Key:
Assay type in all cases: in vivo
[1] = test system: Amaranthus palmeri (AMAPA); assay: Post-emergence Test, Amaranthus palmeri (AMAPA); set-up: key: 5=81-100%, 4=61-80%, 3=41-60%, 2=21-40%, 1=0-20% damage; settings: evaluated after 13 days
Summary of the method: (§1)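 Scores are percentage plant damage on a 1–5 scale (1=0-20%, 2=21-40%, 3=41-60%, 4=61-80%, 5=81-100%), read 13 days after treatment. Pots received a spray at 1000 g/ha unless otherwise stated, formulated in acetone/water (50:50) containing 0.5% Tween 20.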

[2] = test system: Amaranthus retoflexus (AMARE); assay: Pre-emergence Test, Amaranthus retoflexus (AMARE); settings: evaluated after 13 days
[3] = test system: Amaranthus palmeri (AMAPA); assay: Pre-emergence Test, Amaranthus palmeri (AMAPA); settings: evaluated after 13 days
[4] = test system: Ipomoea hederacea (IPOHE); assay: Post-emergence Test, Ipomoea hederacea (IPOHE); set-up: key to percentage damage caused to the plant, IPOHE (five-point scale): 5=81-100%, 4=61-80%, 3=41-60%, 2=21-40%, 1=0-20% damage; settings: evaluated after 13 days
Summary of the method: as §1

[5] = test system: Amaranthus retoflexus (AMARE); assay: Post-emergence Test, Amaranthus retoflexus (AMARE); set-up: key to percentage damage caused to the plant, AMARE (five-point scale): 5=81-100%, 4=61-80%, 3=41-60%, 2=21-40%, 1=0-20% damage; settings: evaluated after 13 days
Summary of the method: as §1

Zea mays (ZEAMX) [6] = assay: Pre-emergence Test, Zea mays (ZEAMX); settings: evaluated after 13 days
Zea mays (ZEAMX) [7] = assay: Post-emergence Test, Zea mays (ZEAMX); set-up: key to percentage damage caused to the plant, ZEAMX (five-point scale): 5=81-100%, 4=61-80%, 3=41-60%, 2=21-40%, 1=0-20% damage; settings: evaluated after 13 days
Summary of the method: as §1

[8] = test system: Echinochloa crus-galli (ECHCG); assay: Post-emergence Test, Echinochloa crus-galli (ECHCG); set-up: key to percentage damage caused to the plant, ECHCG (five-point scale): 5=81-100%, 4=61-80%, 3=41-60%, 2=21-40%, 1=0-20% damage; settings: evaluated after 13 days; for percentage damage caused to the plant, ECHCG (five-point scale): 250 g/Ha
Summary of the method: as §1

Setaria faberi (SETFA) = assay: Post-emergence Test, Setaria faberi (SETFA); set-up: key to percentage damage caused to the plant, SETFA (five-point scale): 5=81-100%, 4=61-80%, 3=41-60%, 2=21-40%, 1=0-20% damage; settings: 1000 g/ha, evaluated after 13 days
Summary of the method: as §1

[9] = test system: Echinochloa crus-galli (ECHCG); assay: Pre-emergence Test, Echinochloa crus-galli (ECHCG); settings: evaluated after 13 days
[10] = test system: Ipomoea hederacea (IPOHE); assay: Pre-emergence Test, Ipomoea hederacea (IPOHE); settings: evaluated after 13 days

SMILES | percentage damage caused to the plant, AMAPA (five-point scale) ([1]; 250 g/Ha) | percentage damage caused to the plant, AMAPA (five-point scale) ([1]; 1000 g/ha) | Pre-emergence Test AMARE, percentage damage caused to the plant (five-point scale) ([2]; 250 g/Ha (*)) | Pre-emergence Test AMARE, percentage damage caused to the plant (five-point scale) ([2]; 1000 g/ha) | Pre-emergence Test AMAPA, percentage damage caused to the plant (five-point scale) ([3]; 250 g/Ha (*)) | Pre-emergence Test AMAPA, percentage damage caused to the plant (five-point scale) ([3]; 1000 g/ha) | percentage damage caused to the plant, IPOHE (five-point scale) ([4]; 250 g/Ha) | percentage damage caused to the plant, IPOHE (five-point scale) ([4]; 1000 g/ha) | percentage damage caused to the plant, AMARE (five-point scale) ([5]; 250 g/Ha) | percentage damage caused to the plant, AMARE (five-point scale) ([5]; 1000 g/ha) | Pre-emergence Test ZEAMX, percentage damage caused to the plant (five-point scale) (Zea mays (ZEAMX) [6]; 250 g/Ha (*)) | Pre-emergence Test ZEAMX, percentage damage caused to the plant (five-point scale) (Zea mays (ZEAMX) [6]; 1000 g/ha) | percentage damage caused to the plant, ZEAMX (five-point scale) (Zea mays (ZEAMX) [7]; 250 g/Ha) | percentage damage caused to the plant, ZEAMX (five-point scale) (Zea mays (ZEAMX) [7]; 1000 g/ha) | percentage damage caused to the plant, ECHCG (five-point scale) [8] | percentage damage caused to the plant, SETFA (five-point scale) (Setaria faberi (SETFA)) | Pre-emergence Test ECHCG, percentage damage caused to the plant (five-point scale) ([9]; 250 g/Ha (*)) | Pre-emergence Test ECHCG, percentage damage caused to the plant (five-point scale) ([9]; 1000 g/ha) | Pre-emergence Test IPOHE, percentage damage caused to the plant (five-point scale) ([10]; 250 g/Ha (*)) | Pre-emergence Test IPOHE, percentage damage caused to the plant (five-point scale) ([10]; 1000 g/ha) | also measured
CCOc1ccn(Cc2cc(=O)c(C(=O)O)c(-c3ccc(Cl)c(Cl)c3)n2CC)n1 [Compound 164, 2-(3,4-dichlorophenyl)-6-[(3-ethoxypyrazol-1-yl)methyl]-1-ethyl-4-oxo-pyridine-3-carboxylic acid] | 1 (1=0-20%) | 3 (3=41-60%) | 1 (1=0-20%) | 1 (1=0-20%) | 0 | 1 (1=0-20%) | 3 (3=41-60%) | 4 (4=61-80%) | 1 (1=0-20%) | 3 (3=41-60%) | 1 (1=0-20%) | 0 | 4 (4=61-80%) | 4 (4=61-80%) | 4 (4=61-80%) | 5 (5=81-100%) | 4 (4=61-80%) | 5 (5=81-100%) | 4 (4=61-80%) | 4 (4=61-80%) | –
CCn1c(Cn2ccc(-c3nccs3)n2)cc(=O)c(C(=O)O)c1-c1ccc(Cl)c(Cl)c1 [Compound 201, 2-(3,4-dichlorophenyl)-1-ethyl-4-oxo-6-[(3-thiazol-2-ylpyrazol-1-yl)methyl]pyridine-3-carboxylic acid] | – | – | – | 0 | – | 0 | – | – | – | – | – | 0 | – | – | – | – | – | 0 | – | 1 (1=0-20%) | Post-emergence Test AMAPA, percentage damage caused to the plant (five-point scale) ([1]; 250 g/Ha (*)): 0; Post-emergence Test AMAPA, percentage damage caused to the plant (five-point scale) ([1]; 1000 g/ha): 1 (1=0-20%); Post-emergence Test IPOHE, percentage damage caused to the plant (five-point scale) ([4]; 250 g/Ha (*)): 0; Post-emergence Test IPOHE, percentage damage caused to the plant (five-point scale) ([4]; 1000 g/ha): 2 (2=21-40%); Post-emergence Test AMARE, percentage damage caused to the plant (five-point scale) ([5]; 250 g/Ha (*)): 0; Post-emergence Test AMARE, percentage damage caused to the plant (five-point scale) ([5]; 1000 g/ha): 2 (2=21-40%); Post-emergence Test ZEAMX, percentage damage caused to the plant (five-point scale) (Zea mays (ZEAMX) [7]; 250 g/Ha (*)): 0; Post-emergence Test ZEAMX, percentage damage caused to the plant (five-point scale) (Zea mays (ZEAMX) [7]; 1000 g/ha): 1 (1=0-20%); Post-emergence Test ECHCG, percentage damage caused to the plant (five-point scale) ([8]; 250 g/Ha (*)): 1 (1=0-20%); Post-emergence Test SETFA, percentage damage caused to the plant (five-point scale) (Setaria faberi (SETFA)): 2 (2=21-40%)
CCn1c(Cn2ccc(COC)n2)cc(=O)c(C(=O)O)c1-c1ccc(Cl)c(Cl)c1 [Compound 162, 2-(3,4-dichlorophenyl)-1-ethyl-6-[[3-(methoxymethyl)pyrazol-1-yl]methyl]-4-oxo-pyridine-3-carboxylic acid] | 1 (1=0-20%) | 2 (2=21-40%) | 1 (1=0-20%) | 3 (3=41-60%) | 0 | 1 (1=0-20%) | 2 (2=21-40%) | 4 (4=61-80%) | 1 (1=0-20%) | 2 (2=21-40%) | 1 (1=0-20%) | 4 (4=61-80%) | 1 (1=0-20%) | 3 (3=41-60%) | 3 (3=41-60%) | 5 (5=81-100%) | 3 (3=41-60%) | 5 (5=81-100%) | 1 (1=0-20%) | 4 (4=61-80%) | –
CCn1c(Cn2ccc(OC(C)C)n2)cc(=O)c(C(=O)O)c1-c1ccc(Cl)c(Cl)c1 [Compound 166, 2-(3,4-dichlorophenyl)-1-ethyl-6-[(3-isopropoxypyrazol-1-yl)methyl]-4-oxo-pyridine-3-carboxylic acid] | 1 (1=0-20%) | 1 (1=0-20%) | 0 | 1 (1=0-20%) | 0 | 1 (1=0-20%) | 2 (2=21-40%) | 4 (4=61-80%) | 0 | 1 (1=0-20%) | 1 (1=0-20%) | 5 (5=81-100%) | 2 (2=21-40%) | 4 (4=61-80%) | 4 (4=61-80%) | 5 (5=81-100%) | 5 (5=81-100%) | 5 (5=81-100%) | 2 (2=21-40%) | 4 (4=61-80%) | –
CCn1c(Cn2nccc2COC)cc(=O)c(C(=O)O)c1-c1ccc(Cl)c(Cl)c1 [Compound 190, 2-(3,4-dichlorophenyl)-1-ethyl-6-[[5-(methoxymethyl)pyrazol-1-yl]methyl]-4-oxo-pyridine-3-carboxylic acid] | 1 (1=0-20%) | 1 (1=0-20%) | 0 | 1 (1=0-20%) | 0 | 1 (1=0-20%) | 1 (1=0-20%) | 3 (3=41-60%) | 1 (1=0-20%) | 2 (2=21-40%) | 1 (1=0-20%) | 2 (2=21-40%) | 0 | 3 (3=41-60%) | 3 (3=41-60%) | 4 (4=61-80%) | 1 (1=0-20%) | 4 (4=61-80%) | 1 (1=0-20%) | 3 (3=41-60%) | –

Source: patent US20250098679A1, “HERBICIDAL PYRIDONE DERIVATIVES” (SYNGENTA CROP PROTECTION AG, priority 2021, published 2025)
